Tests used:
[1] = system: cat fleas (Ctenocephalides felis); assay: control of flea on dog; type: in vivo; details: dogs, 10 mg/kg, 30 mg/mL in 1:1 dimethyl sulfoxide/corn oil; counts versus placebo at 1, 9, 16, 23, 30 days; satisfactory in any of the three areas, for a period ranging from eight to thirty days
Text: (§1) Cats are only infested with fleas.

[2] = system: ticks (Rhipicephalus sanguineus); assay: control of tick on dog; type: in vivo; details: dogs, 10 mg/kg, 30 mg/mL in 1:1 dimethyl sulfoxide/corn oil; counts versus placebo at 1, 9, 16, 23, 30 days; satisfactory in any of the three areas, for a period ranging from eight to thirty days
Text: as §1

[3] = system: cat fleas (Ctenocephalides felis); assay: control of flea on cat; type: in vivo; details: cats, 20 mg/kg, 30 mg/mL in 1:1 dimethyl sulfoxide/corn oil; counts versus placebo at 1, 9, 16, 23, 30 days; satisfactory in any of the three areas, for a period ranging from eight to thirty days
Text: as §1

[4] = side-effects in treated dogs and cats; details: dogs 10 mg/kg, cats 20 mg/kg; period ranging from eight to thirty days
Procedure: The compounds 1-(2,6-dichloro-4-trifluoromethylphenyl)-3-cyano-4-trifluromethylthio-5-hydroxypyrazole, 1-(2,6-dichloro-4-trifluoromethylphenyl)-3-cyano-4-trifluoromethylsulfinyl-5-hydroxypyrazole and 1-(2,6-dichloro-4-trifluoromethylphenyl)-3-cyano-4-trifluoromethylsulfonyl-5-hydroxypyrazole are formulated as 30 mg/mL formulations in a 1:1 volume/volume solution of dimethyl sulfoxide and corn oil. Using this formulation, mixed breed dogs and cats are treated at a rate of 10 mg of the compound per kg (mg/kg)of body weight of the dog and 20 mg/kg of the cat treated. The animals are fasted for at least 8 hours prior to treatment, fed half of the daily ration immediately prior to treatment, then allowed access to the remainder of the daily ration immediately following treatment.
All dogs are infested with cat fleas (Ctenocephalides felis) and with ticks (Rhipicephalus sanguineus) 1 day prior to administration of the compound. Cats are only infested with fleas. […] At 1, 9, 16, 23 and 30 days after treatment the control of fleas and ticks in treated dogs and cats is determined versus a group of infested dogs and cats which receive a placebo consisting of a 1:1 volume/volume solution of dimethyl sulfoxide and corn oil. To determine the efficacies of the compounds, the arthropods are combed from the animnals and counted.

Row | Compound | control of flea on dog [1] | control of tick on dog [2] | control of flea on cat [3] | side-effect [4]
1 | N#Cc1nn(-c2c(Cl)cc(C(F)(F)F)cc2Cl)c(O)c1SC(F)(F)Cl [Compound 1-9, 1-(2,6-dichloro-4-trifluoromethylphenyl)-3-cyano-4-chlorodifluoromethylsulfenyl-5-hydroxypyrazole] | Satisfactory results | Satisfactory results | Satisfactory results | without any significant side-effect
2 | CC(C)(C)C(=O)Oc1c(SC(F)(F)F)c(C#N)nn1-c1c(Cl)cc(C(F)(F)F)cc1Cl [Compound 3-10, 1-(2,6-dichloro-4-trifluoromethylphenyl)-3-cyano-4-trifluoromethylsulfenyl-5-trimethylacetoxypyrazole] | Satisfactory results | Satisfactory results | Satisfactory results | –
3 | CN(C)C(=O)Oc1c(S(=O)(=O)C(F)(F)F)c(C#N)nn1-c1c(Cl)cc(C(F)(F)F)cc1Cl [Compound 19-1, 1-(2,6-dichloro-4-trifluorometylphenyl) -3-cyano-4-trifluormethylsulfonyl-5-N,N-dimethylcarbamyloxypyrazole] | Satisfactory results | Satisfactory results | Satisfactory results | without any significant side-effect
4 | N#Cc1nn(-c2c(Cl)cc(C(F)(F)F)cc2Cl)c(O)c1[S+]([O-])C(F)(F)F (centres unmarked) [Compound 1-3, 1-(2,6-dichloro-4-trifluoromethylphenyl)-3-cyano-4-trifluoromethylsulfinyl-5-hydroxypyrazole] | Satisfactory results | Satisfactory results | Satisfactory results | –
5 | N#Cc1nn(-c2c(Cl)cc(C(F)(F)F)cc2Cl)c(O)c1S(=O)(=O)C(F)(F)F [Compound 1-5, 1-(2,6-dichloro-4-trifluoromethylphenyl)-3-cyano-4-trifluoromethylsulfonyl-5-hydroxypyrazole] | Satisfactory results | Satisfactory results | Satisfactory results | –
6 | N#Cc1nn(-c2c(Cl)cc(C(F)(F)F)cc2Cl)c(O)c1SC(F)(F)F [Compound 1-1, 1-(2,6-dichloro-4-trifluoromethylphenyl)-3-cyano-4-trifluoromethylsulfenyl-5-hydroxypyrazole] | Satisfactory results | Satisfactory results | Satisfactory results | –
7 | CCOc1c(SC(F)(F)F)c(C#N)nn1-c1c(Cl)cc(C(F)(F)F)cc1Cl [Compound 3-1, 1-(2,6-dichloro-4-trifluoromethylphenyl)-3-cyano-4-trifluoromethylsulfenyl-5-ethoxypyrazole] | Satisfactory results | Satisfactory results | Satisfactory results | –

Reference: patent US20070078127A1, “Control of arthropods in animals” (AVENTIS CROPSCIENCE S.A., priority 1999, published 2007)
